*1 amine or outer side, *2 acyl side, *3 side chain or, on linkers, in order; H or OH if unused. Where a SMILES comes first, the peptide text is derived from it. [ ]: non-standard residue; d: D form. The star is where a group is joined. ξ: configuration not given here. Pro(5R-Ph) = O=C(O)[C@@H]1CC[C@H](c2ccccc2)N1; X7 = O=C(c1ccc(-c2cccc(N[*:1])c2)o1)[*:2]; Ala(cPr) = N[C@@H](CC1CC1)C(=O)O; X1 = O=C(Cc1ccc(N[*:1])cc1)[*:2]; X8 = O=C(COc1ccccc1N[*:1])[*:2]; Ile(3ξ) = CCC(C)[C@H](N)C(=O)O; NH(2-Me-phenyl) = Cc1ccccc1N*; hLeu = CC(C)CC[C@H](N)C(=O)O; Nle = CCCC[C@H](N)C(=O)O; Abu = CC[C@H](N)C(=O)O; Ac3c = NC1(C(=O)O)CC1; X11 = CC(C)c1ccccc1N*; Aib = CC(C)(N)C(=O)O; CO = O=C([*:1])[*:2]
Molecular target: Integrin alpha-4/beta-1 (Homo sapiens, UniProt P05556+P13612, T112H)
Assay: Jurkat Cell Adhesion Inhibition Assay
Conditions: not given
Description: Binding affinities (IC50) of the ligands were studied in a Jurkat cell adhesion assay by inhibiting the alpha-4/beta-1 mediated cell adhesion to CS-1 peptides. The 96-well plates were coated with neutravidin, followed by biotinconjugated CS-1 peptides. Jurkat cells with series dilutions of tested ligands in binding buffer were added and allowed to bind for 30 min. Bound cells were recorded using a 96-well plate reader at 570 nm. IC50 values were calculated from inhibition curves resulting from the concentration-dependent inhibition

In order of rising IC50:
1. CCCC[C@H](NC(=O)Cc1ccc(NC(=O)Nc2ccccc2C)cc1)C(=O)N[C@@H](CC(=O)O)C(=O)N[C@@H](CC)C(=O)N1CCC[C@H]1C(N)=O [(3S)-3-{[(2S)-1-[(2S)-2-carbamoylpyrrolidin-1-yl]-1-oxobutan-2-yl]carbamoyl}-3-[(2S)-2-[1-(4-{[(2-methylphenyl)carbamoyl]amino}phenyl)acetamido]hexanamido]propanoic acid] ({NH(2-Me-phenyl)-CO}-[X1][Nle]D[Abu]P-NH2)  2.9 nM
2. CCC(C)[C@H](NC(=O)[C@H](CC(=O)O)NC(=O)[C@H](CCC(C)C)NC(=O)Cc1ccc(NC(=O)Nc2ccccc2C)cc1)C(=O)N1CCC[C@H]1C(N)=O (stereo partly drawn) [(3S)-3-{[(2S,3S)-1-[(2S)-2-carbamoylpyrrolidin-1-yl]-3-methyl-1-oxopentan-2-yl]carbamoyl}-3-[(2S)-5-methyl-2-[1-(4-{[(2-methylphenyl)carbamoyl]amino}phenyl)acetamido]hexanamido]propanoic acid] ({NH(2-Me-phenyl)-CO}-[X1][hLeu]D[Ile(3ξ)]P-NH2)  3 nM
3. CCCC[C@H](NC(=O)Cc1ccc(NC(=O)Nc2ccccc2C)cc1)C(=O)N[C@@H](CC(=O)O)C(=O)NC1(C(=O)N2CCC[C@H]2C(N)=O)CC1 [(3S)-3-[(1-{[(2S)-2-carbamoylpyrrolidin-1-yl]carbonyl}cyclopropyl)carbamoyl]-3-[(2S)-2-[1-(4-{[(2-methylphenyl)carbamoyl]amino}phenyl)acetamido]hexanamido]propanoic acid] ({NH(2-Me-phenyl)-CO}-[X1][Nle]D[Ac3c]P-NH2)  9.2 nM
4. CCCC[C@H](NC(=O)Cc1ccc(NC(=O)Nc2ccccc2C)cc1)C(=O)N[C@@H](CC(=O)O)C(=O)NC(C)(C)C(=O)N1CCC[C@H]1C(N)=O [(3S)-3-({1-[(2S)-2-carbamoylpyrrolidin-1-yl]-2-methyl-1-oxopropan-2-yl}carbamoyl)-3-[(2S)-2-[1-(4-{[(2-methylphenyl)carbamoyl]amino}phenyl)acetamido]hexanamido]propanoic acid] ({NH(2-Me-phenyl)-CO}-[X1][Nle]D[Aib]P-NH2)  13 nM
5. CCC(C)[C@H](NC(=O)[C@H](CC(=O)O)NC(=O)[C@H](CC1CC1)NC(=O)Cc1ccc(NC(=O)Nc2ccccc2C)cc1)C(=O)N1CCC[C@H]1C(N)=O (stereo partly drawn) [(3S)-3-{[(2S,3S)-1-[(2S)-2-carbamoylpyrrolidin-1-yl]-3-methyl-1-oxopentan-2-yl]carbamoyl}-3-[(2S)-3-cyclopropyl-2-[1-(4-{[(2-methylphenyl)carbamoyl]amino}phenyl)acetamido]propanamido]propanoic acid] ({NH(2-Me-phenyl)-CO}-[X1][Ala(cPr)]D[Ile(3ξ)]P-NH2)  64 nM
6. CCCC[C@H](NC(=O)c1ccc(-c2cccc(NC(=O)Nc3ccccc3C)c2)o1)C(=O)N[C@@H](CC(=O)O)C(=O)N[C@H](C(=O)N1CCC[C@H]1C(N)=O)C(C)CC (stereo partly drawn) [(3S)-3-{[(2S,3S)-1-[(2S)-2-carbamoylpyrrolidin-1-yl]-3-methyl-1-oxopentan-2-yl]carbamoyl}-3-[(2S)-2-{[5-(3-{[(2-methylphenyl)carbamoyl]amino}phenyl)furan-2-yl]formamido}hexanamido]propanoic acid] ({NH(2-Me-phenyl)-CO}-[X7][Nle]D[Ile(3ξ)]P-NH2)  325 nM
7. CCCC[C@H](NC(=O)COc1ccccc1NC(=O)Nc1ccccc1C)C(=O)N[C@@H](CC(=O)O)C(=O)N[C@H](C(=O)N1CCC[C@H]1C(N)=O)C(C)CC (stereo partly drawn) [(3S)-3-{[(2S,3S)-1-[(2S)-2-carbamoylpyrrolidin-1-yl]-3-methyl-1-oxopentan-2-yl]carbamoyl}-3-[(2S)-2-[2-(2-{[(2-methylphenyl)carbamoyl]amino}phenoxy)acetamido]hexanamido]propanoic acid] ({NH(2-Me-phenyl)-CO}-[X8][Nle]D[Ile(3ξ)]P-NH2)  463 nM
8. CCCC[C@H](NC(=O)Cc1ccc(NC(=O)Nc2ccccc2C(C)C)cc1)C(=O)N[C@@H](CC(=O)O)C(=O)N[C@H](C(=O)N1CCC[C@H]1C(N)=O)C(C)CC (stereo partly drawn) [(3S)-3-{[(2S,3S)-1-[(2S)-2-carbamoylpyrrolidin-1-yl]-3-methyl-1-oxopentan-2-yl]carbamoyl}-3-[(2S)-2-{1-[4-({[2-(propan-2-yl)phenyl]carbamoyl}amino)phenyl]acetamido}hexanamido]propanoic acid] ({X11-CO}-[X1][Nle]D[Ile(3ξ)]P-NH2)  531 nM

Same assay, conditions: pH 7.5; 22 °C

In order of falling IC50:
1. CCCC[C@H](NC(=O)Cc1ccc(NC(=O)Nc2ccccc2C)cc1)C(=O)N[C@@H](CC(=O)O)C(=O)N[C@H](C(=O)N1[C@@H](c2ccccc2)CC[C@H]1C(N)=O)C(C)CC (stereo partly drawn) [(3S)-3-{[(2S,3S)-1-[(2S,5R)-2-carbamoyl-5-phenylpyrrolidin-1-yl]-3-methyl-1-oxopentan-2-yl]carbamoyl}-3-[(2S)-2-[1-(4-{[(2-methylphenyl)carbamoyl]amino}phenyl)acetamido]hexanamido]propanoic acid] ({NH(2-Me-phenyl)-CO}-[X1][Nle]D[Ile(3ξ)][Pro(5R-Ph)]-NH2)  38 nM
2. CCCC[C@H](NC(=O)Cc1ccc(NC(=O)Nc2ccccc2C)cc1)C(=O)N[C@@H](CC(=O)O)C(=O)N[C@H](C(=O)N1CCC2(CC1)C(=O)N(CC(N)=O)CN2c1ccccc1)C(C)CC (stereo partly drawn) [(3S)-3-{[(2S,3S)-1-[3-(carbamoylmethyl)-4-oxo-1-phenyl-1,3,8-triazaspiro[4.5]decan-8-yl]-3-methyl-1-oxopentan-2-yl]carbamoyl}-3-[(2S)-2-[1-(4-{[(2-methylphenyl)carbamoyl]amino}phenyl)acetamido]hexanamido]propanoic acid]  29 nM
3. CCCC[C@H](NC(=O)Cc1ccc(NC(=O)Nc2ccccc2C)cc1)C(=O)N[C@@H](CC(=O)O)C(=O)N[C@H](C(=O)NC1CC[C@@H]2SC[C@@H](C(N)=O)N2C1=O)[C@@H](C)CC (stereo partly drawn) [(3S)-3-{[(1S,2S)-1-{[(3R,8aS)-3-carbamoyl-5-oxo-hexahydro-2H-pyrido[2,1-b][1,3]thiazol-6-yl]carbamoyl}-2-methylbutyl]carbamoyl}-3-[(2S)-2-[1-(4-{[(2-methylphenyl)carbamoyl]amino}phenyl)acetamido]hexanamido]propanoic acid]  3.4 nM
4. CCCC[C@H](NC(=O)Cc1ccc(NC(=O)Nc2ccccc2C)cc1)C(=O)N[C@@H](CC(=O)O)C(=O)N[C@H](C(=O)N1Cc2ccccc2C[C@@H]1C(N)=O)C(C)CC (stereo partly drawn) [(3S)-3-{[(2S,3S)-1-[(3R)-3-carbamoyl-1,2,3,4-tetrahydroisoquinolin-2-yl]-3-methyl-1-oxopentan-2-yl]carbamoyl}-3-[(2S)-2-[1-(4-{[(2-methylphenyl)carbamoyl]amino}phenyl)acetamido]hexanamido]propanoic acid]  3.2 nM
5. CCCC[C@H](NC(=O)Cc1ccc(NC(=O)Nc2ccccc2C)cc1)C(=O)N[C@@H](CC(=O)O)C(=O)N[C@H](C(=O)N1CSC[C@H]1C(N)=O)C(C)CC (stereo partly drawn) [(3S)-3-{[(2S,3S)-1-[(4R)-4-carbamoyl-1,3-thiazolidin-3-yl]-3-methyl-1-oxopentan-2-yl]carbamoyl}-3-[(2S)-2-[1-(4-{[(2-methylphenyl)carbamoyl]amino}phenyl)acetamido]hexanamido]propanoic acid]  3.1 nM
6. CCCC[C@H](NC(=O)Cc1ccc(NC(=O)Nc2ccccc2C)cc1)C(=O)N[C@@H](CC(=O)O)C(=O)N[C@H](C(=O)N1CCC[C@H]1C(N)=O)C(C)CC (stereo partly drawn) [(3S)-3-{[(2S,3S)-1-[(2S)-2-carbamoylpyrrolidin-1-yl]-3-methyl-1-oxopentan-2-yl]carbamoyl}-3-[(2S)-2-[1-(4-{[(2-methylphenyl)carbamoyl]amino}phenyl)acetamido]hexanamido]propanoic acid]  1.4 nM

From BindingDB's records for doi:10.1002/bip.20588 (University of California Davis, 2006)
